Laboratory results: the supplement of paper PMC8671470

Tests used:
Test in all cases: cell viability (% survival relative to DMSO control); higher = less cytotoxic
Settings in all cases: 72 h
[1] = test system: Mono-Mac-6
Experimental: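 8x8 drug-combination matrices (0–5000 nM; rosiglitazone and lestaurtinib 0–1000 nM) were run in Mono-Mac-6 cells for 72 h with CellTiter-Glo read-out. Survival is normalised to DMSO and 10 µM bortezomib and clipped at 100%.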

[2] = test system: BV-173
Experimental: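 8x8 drug-combination matrices (0–5000 nM; rosiglitazone and lestaurtinib 0–1000 nM) were run in BV-173 cells for 72 h with CellTiter-Glo read-out. Survival is normalised to DMSO and 10 µM bortezomib and clipped at 100%.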

[3] = test system: MV4-11
Experimental: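 8x8 drug-combination matrices (0–5000 nM; rosiglitazone and lestaurtinib 0–1000 nM) were run in MV4-11 cells for 72 h with CellTiter-Glo read-out. Survival is normalised to DMSO and 10 µM bortezomib and clipped at 100%.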

O=C(O)CC[N+](=O)[O-] [3-nitropropionic acid] + CCn1c(=Cc2cccc[n+]2CC)sc(=C2Sc3ccccc3N2C)c1=O [MKT 077]
cell viability [%]
Settings	drug1 concentration 5 nM	drug1 concentration 10 nM	drug1 concentration 50 nM	drug1 concentration 100 nM	drug1 concentration 500 nM	drug1 concentration 1000 nM	drug1 concentration 5000 nM
[1], drug2 concentration 5 nM	> 100	98.1	> 100	90.2	> 100	> 100	90.3
[1], drug2 concentration 10 nM	> 100	> 100	> 100	> 100	> 100	> 100	> 100
[1], drug2 concentration 50 nM	> 100	> 100	> 100	91	96.5	86	> 100
[1], drug2 concentration 100 nM	84.8	> 100	> 100	> 100	> 100	> 100	76.8
[1], drug2 concentration 500 nM	99.9	82.8	> 100	> 100	> 100	84.4	> 100
[1], drug2 concentration 1000 nM	> 100	> 100	> 100	> 100	96.7	87	82.4
[1], drug2 concentration 5000 nM	79.1	74.4	> 100	> 100	63.8	> 100	> 100
[2], drug2 concentration 5 nM	83.1	78.6	88.7	> 100	> 100	83.5	59.7
[2], drug2 concentration 10 nM	97.8	> 100	> 100	94.6	72.9	92.9	> 100
[2], drug2 concentration 50 nM	93.3	> 100	> 100	> 100	> 100	99.5	> 100
[2], drug2 concentration 100 nM	78.1	85.8	> 100	94.3	> 100	> 100	87.9
[2], drug2 concentration 500 nM	> 100	84.2	84.2	86.4	> 100	76.6	> 100
[2], drug2 concentration 1000 nM	> 100	> 100	> 100	> 100	89.1	88.9	74.4
[2], drug2 concentration 5000 nM	> 100	72	> 100	> 100	> 100	> 100	> 100
[3], drug2 concentration 5 nM	89.1	97	> 100	86.8	> 100	> 100	75.6
[3], drug2 concentration 10 nM	89.2	> 100	> 100	83.7	98.1	> 100	> 100
[3], drug2 concentration 50 nM	> 100	> 100	> 100	84.1	> 100	81.3	> 100
[3], drug2 concentration 100 nM	97.3	> 100	93.7	84.3	> 100	88.2	68.4
[3], drug2 concentration 500 nM	> 100	96	92.7	> 100	94.3	91.4	86.1
[3], drug2 concentration 1000 nM	89.6	97.4	92.8	> 100	97.6	> 100	65.1
[3], drug2 concentration 5000 nM	72.5	80	96.6	> 100	87.2	97.2	79.8

CCn1c(=Cc2cccc[n+]2CC)sc(=C2Sc3ccccc3N2C)c1=O [MKT 077] + CN(C)CCNC(=O)c1cccn2c(=O)c3cc4ccccc4cc3nc12 [Bmh-21]
cell viability [%]
Settings	drug1 concentration 5 nM	drug1 concentration 10 nM	drug1 concentration 50 nM	drug1 concentration 100 nM	drug1 concentration 500 nM	drug1 concentration 1000 nM	drug1 concentration 5000 nM
[1], drug2 concentration 5 nM	93.5	> 100	99.6	94.6	99.8	> 100	> 100
[1], drug2 concentration 10 nM	> 100	> 100	> 100	90.1	> 100	78.2	> 100
[1], drug2 concentration 50 nM	95.8	86.2	82.7	> 100	87.1	> 100	99
[1], drug2 concentration 100 nM	91.6	> 100	> 100	99.7	> 100	> 100	> 100
[1], drug2 concentration 500 nM	90.4	93.3	82.1	87.7	84.3	62.8	73.5
[1], drug2 concentration 1000 nM	76.7	77.5	> 100	72.8	76.2	74.1	56.9
[1], drug2 concentration 5000 nM	46	58.2	59.9	64.1	65.1	58.6	24.6
[2], drug2 concentration 5 nM	90.2	> 100	> 100	> 100	82.7	> 100	93.6
[2], drug2 concentration 10 nM	> 100	> 100	> 100	> 100	> 100	> 100	> 100
[2], drug2 concentration 50 nM	> 100	> 100	86	90.4	86.5	> 100	> 100
[2], drug2 concentration 100 nM	> 100	96.7	94.6	> 100	90.9	> 100	> 100
[2], drug2 concentration 500 nM	4.65	59.5	45.4	34.8	46.4	11.4	49.9
[2], drug2 concentration 1000 nM	0.56	28.5	1.73	66.5	1.33	2.69	6.83
[2], drug2 concentration 5000 nM	0.22	1.2	-0.65	0.37	-0.07	0.15	6.67
[3], drug2 concentration 5 nM	89	81.4	> 100	87.9	90.8	> 100	78.7
[3], drug2 concentration 10 nM	97.1	> 100	> 100	99.1	86	71	> 100
[3], drug2 concentration 50 nM	86.2	86.7	88.4	> 100	84.5	> 100	> 100
[3], drug2 concentration 100 nM	> 100	> 100	92.3	95.9	89.4	69.7	> 100
[3], drug2 concentration 500 nM	70.6	88.8	78.3	87.8	> 100	86.7	84.5
[3], drug2 concentration 1000 nM	87.2	46.6	> 100	89.9	74.8	60.5	64.2
[3], drug2 concentration 5000 nM	31.1	35.2	31.4	63.2	25.9	24.1	37.5
